Measured values taken from patent publication US9024032B2, “Inhibitors of catechol O-methyl transferase and their use in the treatment of psychotic disorders” (Merck Sharp & Dohme Corp., priority 2010, dated 2015).
pIC50: −log10 of the molar value.

These molecules were tested against T1, purified human COMT enzyme of the Val158 variant (membrane-bound MB-COMT) (Homo sapiens, UniProt P21964) (assay: MB-COMT inhibition, Esculetin or Fluorescence Polarization assay). Conditions: not given.
T1 construct: 6xHis or 10xHis (C)
T1 sequence (P21964 1-271): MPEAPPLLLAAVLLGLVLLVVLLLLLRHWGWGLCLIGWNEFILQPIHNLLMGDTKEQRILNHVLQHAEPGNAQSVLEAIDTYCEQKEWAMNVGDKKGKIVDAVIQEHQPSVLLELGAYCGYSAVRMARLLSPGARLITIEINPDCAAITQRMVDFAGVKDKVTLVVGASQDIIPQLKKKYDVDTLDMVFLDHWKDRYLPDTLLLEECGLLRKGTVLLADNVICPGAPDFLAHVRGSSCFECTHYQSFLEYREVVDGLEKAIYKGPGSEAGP
Assay type: biochemical

| SMILES | pIC50 |
| --- | --- |
| COc1ccc(-c2nc3cc(-n4ccc(=O)c(O)c4)ccc3[nH]2)cc1 [Example 2, 3-hydroxy-1-[2-(4-methoxyphenyl)-1H-benzimidazol-5-yl]pyridin-4(1H)-one] | 7.19 |

Same assay, conditions: Esculetin or Fluorescence Polarization assay; human Val158 variant; read-out: MB-COMT IC50-

| SMILES | pIC50 |
| --- | --- |
| O=c1ccn(-c2cccc(-c3cccc4[nH]ncc34)n2)cc1O [Example 8, 3-Hydroxy-6′-(1H-indazol-4-yl)-4H-1,2′-bipyridin-4-one] | 7.68 |
| O=c1ccn(-c2nccc(-c3c(Cl)cnc4[nH]ccc34)c2F)cc1O [Example 9, 4′-(5-chloro-1H-pyrrolo[2,3-b]pyridin-4-yl)-3′-fluoro-3-hydroxy-4H-1,2′-bipyridin-4-one] | 8.10 |
| COc1ncc(F)cc1C(O)Cc1cc(=O)c(O)cn1-c1cccc(-c2ccccc2)c1 (centres unmarked) [Example 11, 1-biphenyl-3-yl-2-[2-(5-fluoro-2-methoxypyridin-3-yl)-2-hydroxyethyl]-5-hydroxypyridin-4(1H)-one] | 7.06 |
| O=c1cc(C(O)C#Cc2ccccc2)n(-c2cccc(-c3c(Cl)cnc4[nH]ccc34)c2)cc1O (centres unmarked) [Example 12, 1-[3-(5-chloro-1H-pyrrolo[2,3-b]pyridin-4-yl)phenyl]-5-hydroxy-2-(1-hydroxy-3-phenylprop-2-yn-1-yl)pyridin-4(1H)-one] | 7.59 |

The remaining lines, values ahead:

| pIC50 | SMILES |
| --- | --- |
| 6.65 | CC(O)c1cc(=O)c(O)cn1-c1cccc(-c2cncc3ccccc23)c1 (centres unmarked) [Example 14, 5-hydroxy-2-(1-hydroxyethyl)-1-[3-(isoquinolin-4-yl)phenyl]pyridin-4(1H)-one] |
| 6.72 | Cc1cc(=O)c(O)cn1-c1cccc2c1ncn2Cc1c(F)cccc1Cl [Example 10, 1-[1-(2-Chloro-6-fluorobenzyl)-1H-benzimidazol-4-yl]-5-hydroxy-2-methylpyridin-4(1H)-one] |
| 7.00 | CNc1cc(=O)c(O)cn1-c1cccc(-c2ccccc2)c1 [Example 4, 1-(Biphenyl-3-yl)-5-hydroxy-2-(methylamino)pyridin-4(1H)-one] |
| 7.12 | Nc1cc(=O)c(O)cn1-c1cccc(-c2ccccc2)c1 [Example 3, 2-Amino-1-(biphenyl-3-yl)-5-hydroxypyridin-4(1H)-one] |
| 7.15 | O=c1cc(C(O)C(F)(F)F)n(-c2cccc(-c3cccc4ncccc34)c2)cc1O (centres unmarked) [Example 15, 5-hydroxy-1-[3-(quinolin-5-yl)phenyl]-2-(2,2,2-trifluoro-1-hydroxyethyl)pyridin-4(1H)-one] |
| 7.39 | CC(O)c1cc(=O)c(O)cn1-c1cccc(-c2c(Cl)cnc3[nH]ccc23)c1 (single isomer, unassigned) [Example 13, 1-[3-(5-chloro-1H-pyrrolo[2,3-b]pyridin-4-yl)phenyl]-5-hydroxy-2-(1-hydroxyethyl)-pyridin-4(1H)-one] |
